# Laboratory results as given in ChEMBL document CHEMBL4483862, “Open-source discovery of chemical leads for next-generation chemoprotective antimalarials” (2018).
# System: Plasmodium berghei
# Experiment: Luciferase/luciferin-expressing antifolate-resistant parasites were used to infect a culture of HepG2 cells that were pre-incubated with compounds. Infected hepatocytes emit light due to the luciferase reaction. Assay results are presented as the percent inhibition of light emission compared to control. […]
# Type: functional
# Conditions: sporozoite; for IC90: read-out: LUCIFERASE INFECTION ASSAY - IC90
SMILES,IC90 [µM],other results
N=C(NS(=O)(=O)c1cc(C(F)(F)F)cc(C(F)(F)F)c1)c1ccc(Cl)cc1,> 7.66,"IC50 (HEPG2TOX_HILL_SLOPE 0.0636, HEPG2TOX_R_SQUARED 0.0519, read-out: LUCIFERASE INFECTION ASSAY - IC50): > 7.66 µM"
Cc1ncc(CO)c(/C=N/NC(=S)Nc2ccc(C(C)C)cc2)c1O,> 10,"IC50 (HEPG2TOX_HILL_SLOPE 0.0695, HEPG2TOX_R_SQUARED 0.0364, read-out: LUCIFERASE INFECTION ASSAY - IC50): > 10 µM"
COc1ccc(C(N)c2csc(NC(=O)c3cc(C(C)(C)C)nn3Cc3ccccc3)n2)cc1 (stereo unspecified),4.86,"IC50 (HEPG2TOX_HILL_SLOPE 0.0688, HEPG2TOX_R_SQUARED 0.351, PBLUC_HILL_SLOPE 6.29, PBLUC_R_SQUARED 0.765, read-out: LUCIFERASE INFECTION ASSAY - IC50): 3.43 µM"
CCN(C(=O)CN(Cc1ccccc1)S(=O)(=O)/C=C/c1ccccc1)c1cccc2ccccc12,> 10,"IC50 (HEPG2TOX_HILL_SLOPE 0.0751, HEPG2TOX_R_SQUARED 0.254, read-out: LUCIFERASE INFECTION ASSAY - IC50): > 10 µM"
COCC(C)n1c(C)cc(C(=O)COC(=O)c2cccc(C)c2C)c1C (stereo unspecified),6.95,"IC50 (HEPG2TOX_HILL_SLOPE 0.0806, HEPG2TOX_R_SQUARED 0.082, PBLUC_HILL_SLOPE 4.05, PBLUC_R_SQUARED 0.617, read-out: LUCIFERASE INFECTION ASSAY - IC50): 4.04 µM"
Cc1cc(C(=O)COC(=O)c2ccccc2OCc2ccccc2Cl)c(C)n1CC1CCCO1 (stereo unspecified),> 10,"IC50 (HEPG2TOX_HILL_SLOPE 0.0867, HEPG2TOX_R_SQUARED 0.214, read-out: LUCIFERASE INFECTION ASSAY - IC50): > 10 µM"
CC(C)[C@H](NC(=O)c1ccc(Cl)cc1)C(=O)OCC(=O)NCCc1ccc(S(N)(=O)=O)cc1,> 10,"IC50 (HEPG2TOX_HILL_SLOPE 0.118, HEPG2TOX_R_SQUARED 0.186, PBLUC_HILL_SLOPE 0.264, PBLUC_R_SQUARED 0.0178, read-out: LUCIFERASE INFECTION ASSAY - IC50): > 10 µM"
CNc1snc(C)c1C(=O)N(C)Cc1ccc(OC(F)(F)F)cc1,2.72,"IC50 (HEPG2TOX_HILL_SLOPE 0.114, HEPG2TOX_R_SQUARED 0.0245, PBLUC_HILL_SLOPE 2.54, PBLUC_R_SQUARED 0.592, read-out: LUCIFERASE INFECTION ASSAY - IC50): 1.15 µM"
Cn1ccc2cc(-c3cnc4cnc(-c5ccc(C(=O)N6CCOCC6)cc5)cn34)ccc21,> 7.54,"IC50 (HEPG2TOX_HILL_SLOPE 0.0832, HEPG2TOX_R_SQUARED 0.45, PBLUC_HILL_SLOPE 3.74, PBLUC_R_SQUARED 0.552, read-out: LUCIFERASE INFECTION ASSAY - IC50): 5.41 µM"
Cc1cc(C)c(NC(=O)CN(C)C2CC(=O)N(C)C2=O)c(C)c1 (stereo unspecified),> 10,"IC50 (HEPG2TOX_HILL_SLOPE 0.116, HEPG2TOX_R_SQUARED 0.0867, read-out: LUCIFERASE INFECTION ASSAY - IC50): > 10 µM"
Cc1ccc2nc(NC(=O)C3CCCCC3)c(C(=O)NC3CCCCC3)n2c1,> 8.63,"IC50 (HEPG2TOX_HILL_SLOPE 0.0875, HEPG2TOX_R_SQUARED 0.133, PBLUC_HILL_SLOPE 0.199, PBLUC_R_SQUARED 0.0366, read-out: LUCIFERASE INFECTION ASSAY - IC50): > 8.63 µM"
COc1ccccc1-n1c(COc2ccccc2-c2ccccc2)nnc1SC(C(=O)NC(N)=O)C(C)C (stereo unspecified),> 10,"IC50 (HEPG2TOX_HILL_SLOPE 0.0773, HEPG2TOX_R_SQUARED 0.0989, read-out: LUCIFERASE INFECTION ASSAY - IC50): > 10 µM"
OCc1ccc(-c2cn3c(-c4ccccc4)cnc3cn2)cc1,> 11,"IC50 (HEPG2TOX_HILL_SLOPE 0.117, HEPG2TOX_R_SQUARED 0.27, read-out: LUCIFERASE INFECTION ASSAY - IC50): > 11 µM"
Cc1cccc(Nc2ccccc2C(=O)Oc2ccc(Cl)cc2Cc2ccccc2)c1C,> 10,"IC50 (HEPG2TOX_HILL_SLOPE 0.105, HEPG2TOX_R_SQUARED 0.052, read-out: LUCIFERASE INFECTION ASSAY - IC50): > 10 µM"
CC(C)CN1CCC1(C(=O)NCc1cccc2ccccc12)c1ccccc1 (stereo unspecified),> 8.86,"IC50 (HEPG2TOX_HILL_SLOPE 0.125, HEPG2TOX_R_SQUARED 0.379, PBLUC_HILL_SLOPE 1.82, PBLUC_R_SQUARED 0.397, read-out: LUCIFERASE INFECTION ASSAY - IC50): 5.57 µM"
O=C1NC(=S)S/C1=C\c1ccc(OCc2ccc(Cl)c(Cl)c2)cc1,> 8.33,"IC50 (HEPG2TOX_HILL_SLOPE 0.0732, HEPG2TOX_R_SQUARED 0.0803, read-out: LUCIFERASE INFECTION ASSAY - IC50): > 8.33 µM"
O=C(/C=C/c1ccccc1)N1CCN(S(=O)(=O)c2ccccc2C(F)(F)F)CC1,6.57,"IC50 (HEPG2TOX_HILL_SLOPE 0.114, HEPG2TOX_R_SQUARED 0.819, PBLUC_HILL_SLOPE 7.50, 16.5, PBLUC_R_SQUARED 0.237, 0.462, read-out: LUCIFERASE INFECTION ASSAY - IC50): 5.45 µM"

SMILES,IC90 [µM],other results
O=C(CN1C(=O)S/C(=C\c2ccco2)C1=O)c1ccc([N+](=O)[O-])cc1,> 10,"IC50 (HEPG2TOX_HILL_SLOPE 0.122, HEPG2TOX_R_SQUARED 0.0589, read-out: LUCIFERASE INFECTION ASSAY - IC50): > 10 µM"
N#Cc1ncn(CC(=O)NCC2(N3CCOCC3)CCCCC2)n1,> 10,"IC50 (HEPG2TOX_HILL_SLOPE 0.0925, HEPG2TOX_R_SQUARED 0.157, read-out: LUCIFERASE INFECTION ASSAY - IC50): > 10 µM"
Cc1cc(S(=O)(=O)c2ccc(OC(=O)CC3CCCC3)c(C)c2)ccc1OC(=O)CC1CCCC1,> 10,"IC50 (HEPG2TOX_HILL_SLOPE 0.0998, HEPG2TOX_R_SQUARED 0.18, PBLUC_HILL_SLOPE 0.103, PBLUC_R_SQUARED 0.0204, read-out: LUCIFERASE INFECTION ASSAY - IC50): > 10 µM"
O=C1CC(c2c(F)cccc2Cl)CC2=Nc3ccccc3NC(c3ccc(Cl)cc3)C12 (stereo unspecified),> 7.28,"IC50 (HEPG2TOX_HILL_SLOPE 0.118, HEPG2TOX_R_SQUARED 0.0386, read-out: LUCIFERASE INFECTION ASSAY - IC50): > 7.28 µM"
O=C(NCCSCc1ccc(Cl)cc1Cl)c1cccs1,3.51,"IC50 (HEPG2TOX_HILL_SLOPE 0.0561, HEPG2TOX_R_SQUARED 0.0467, PBLUC_HILL_SLOPE 2.24, PBLUC_R_SQUARED 0.817, read-out: LUCIFERASE INFECTION ASSAY - IC50): 1.32 µM"
Cc1cccc(C(C)C)c1NC(=O)C(C)Sc1nc2scc(-c3ccccc3Cl)c2c(=O)n1C (stereo unspecified),1.19,"IC50 (HEPG2TOX_HILL_SLOPE 0.0632, HEPG2TOX_R_SQUARED 0.325, PBLUC_HILL_SLOPE 16, PBLUC_R_SQUARED 0.687, read-out: LUCIFERASE INFECTION ASSAY - IC50): 1.03 µM"
O=C(Nc1cccc(C(F)(F)F)c1)n1nccc1-c1cc(-c2ccccc2)no1,3.32,"IC50 (HEPG2TOX_HILL_SLOPE 0.0838, HEPG2TOX_R_SQUARED 0.0659, PBLUC_HILL_SLOPE 13.2, PBLUC_R_SQUARED 0.221, read-out: LUCIFERASE INFECTION ASSAY - IC50): 2.81 µM"
CCOc1c(Br)cnn(-c2ccc(C)cc2)c1=O,> 10.7,"IC50 (HEPG2TOX_HILL_SLOPE 0.0619, HEPG2TOX_R_SQUARED 0.0842, PBLUC_HILL_SLOPE 9.69, PBLUC_R_SQUARED 0.342, read-out: LUCIFERASE INFECTION ASSAY - IC50): > 10.7 µM"
CC1CCCC(N=C2NN=C(c3c[nH]c(C(=O)N4CCCC4)c3)CS2)C1C (stereo unspecified),> 10,"IC50 (HEPG2TOX_HILL_SLOPE 0.0793, HEPG2TOX_R_SQUARED 0.0179, read-out: LUCIFERASE INFECTION ASSAY - IC50): > 10 µM"
Cc1ccc(Cn2ncc3c(C(=O)N4CCN(c5ncccn5)CC4)cc(C)nc32)cc1,> 10,"IC50 (HEPG2TOX_HILL_SLOPE 0.12, HEPG2TOX_R_SQUARED 0.204, PBLUC_HILL_SLOPE 1.61, PBLUC_R_SQUARED 0.516, read-out: LUCIFERASE INFECTION ASSAY - IC50): 8.29 µM"
COc1ccccc1-c1ccc2ncc(-c3cccnc3)n2n1,4.41,"IC50 (HEPG2TOX_HILL_SLOPE 0.11, HEPG2TOX_R_SQUARED 0.0747, PBLUC_HILL_SLOPE 11.9, PBLUC_R_SQUARED 0.526, read-out: LUCIFERASE INFECTION ASSAY - IC50): 3.67 µM"
COc1ccc(CN2CCN(c3nc4c(Cl)c(C)nn4c4ccccc34)CC2)cc1OC,> 10,"IC50 (HEPG2TOX_HILL_SLOPE 0.0984, HEPG2TOX_R_SQUARED 0.313, PBLUC_HILL_SLOPE 1.53, PBLUC_R_SQUARED 0.0755, read-out: LUCIFERASE INFECTION ASSAY - IC50): > 10 µM"
Cc1ccc(N(CC(=O)Nc2ccc(Cl)cc2)S(C)(=O)=O)cc1Cl,> 8.52,"IC50 (HEPG2TOX_HILL_SLOPE 0.0682, HEPG2TOX_R_SQUARED 0.0747, PBLUC_HILL_SLOPE 6.57, PBLUC_R_SQUARED 0.017, read-out: LUCIFERASE INFECTION ASSAY - IC50): > 8.52 µM"
O=C(COc1ccc(F)cc1C(=O)c1cnn(-c2ccccc2)c1)Nc1ccc(Br)cc1F,> 10,"IC50 (HEPG2TOX_HILL_SLOPE 0.0675, HEPG2TOX_R_SQUARED 0.0289, PBLUC_HILL_SLOPE 1.95, PBLUC_R_SQUARED 0.148, read-out: LUCIFERASE INFECTION ASSAY - IC50): > 10 µM"
O=C(CC1Sc2ccccc2NC1=O)NCCCn1ccc2ccccc21 (stereo unspecified),3.47,"IC50 (HEPG2TOX_HILL_SLOPE 0.0908, HEPG2TOX_R_SQUARED 0.322, PBLUC_HILL_SLOPE 2.29, PBLUC_R_SQUARED 0.881, read-out: LUCIFERASE INFECTION ASSAY - IC50): 1.33 µM"
Cc1nc(NCc2ccc(Cl)cc2)c2cc(-c3ccccc3)sc2n1,> 10,"IC50 (HEPG2TOX_HILL_SLOPE 0.0996, HEPG2TOX_R_SQUARED 0.0438, PBLUC_HILL_SLOPE 16.2, PBLUC_R_SQUARED 0.0193, read-out: LUCIFERASE INFECTION ASSAY - IC50): 9.43 µM"
